We go through 19 compounds from PubChem BioAssay AID256 (DTP/NCI, 2004).

Where “and” joins values, the source holds several entries; their conditions need not be identical. Identical values can stand only once. Inconclusive results and toxic doses are left out.

In this test the test system is CD2F1 mice, L1210 leukemia ip, survival T/C. Nature of the test: NCI In Vivo Anticancer Drug Screen. Data for tumor model L1210 Leukemia (intraperitoneal) in CD2F1 (CDF1) mice. The note with it: higher = longer survival. An outline of the steps: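 Transplantable tumor in mice; compound-treated vs vehicle-treated groups. Read-out = treated/control ratio of the measured endpoint.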

The mark [1] stands for this setting: endpoint: mean survival time, dose: 25.0 mg/kg/injection, schedule: Q01DX009 (ip), vehicle: saline with Tween-80.
Setting [2] is: endpoint: mean survival time, dose: 50.0 mg/kg/injection, schedule: Q01DX009 (ip), vehicle: saline with Tween-80.
[3] abbreviates: endpoint: mean survival time, dose: 100.0 mg/kg/injection, schedule: Q01DX009 (ip), vehicle: saline with Tween-80.
Setting [4] is: endpoint: mean survival time, dose: 200.0 mg/kg/injection, schedule: Q01DX009 (ip), vehicle: saline with Tween-80.
The mark [5] stands for this setting: endpoint: mean survival time, dose: 100.0 mg/kg/injection, schedule: Q04DX003 (ip), vehicle: saline with Tween-80.
[6] abbreviates: endpoint: mean survival time, dose: 200.0 mg/kg/injection, schedule: Q04DX003 (ip), vehicle: saline with Tween-80.
Where [7] appears, read: endpoint: mean survival time, dose: 400.0 mg/kg/injection, schedule: Q04DX003 (ip), vehicle: saline with Tween-80.
The mark [8] stands for this setting: endpoint: mean survival time, dose: 50.0 mg/kg/injection, schedule: Q01DX009 (ip), vehicle: saline.
Setting [9] is: endpoint: mean survival time, dose: 100.0 mg/kg/injection, schedule: Q01DX009 (ip), vehicle: saline.
Where [10] appears, read: endpoint: mean survival time, dose: 400.0 mg/kg/injection, schedule: Q01DX009 (ip), vehicle: saline with Tween-80.
Setting [11] is: endpoint: mean survival time, dose: 25.0 mg/kg/injection, schedule: Q01DX009 (ip), vehicle: saline.
Where [12] appears, read: endpoint: mean survival time, dose: 100.0 mg/kg/injection, schedule: Q04DX003 (ip), vehicle: Klucel (hydroxypropylcellulose) (HPC).
The mark [13] stands for this setting: endpoint: mean survival time, dose: 200.0 mg/kg/injection, schedule: Q04DX003 (ip), vehicle: Klucel (hydroxypropylcellulose) (HPC).
[14] abbreviates: endpoint: mean survival time, dose: 400.0 mg/kg/injection, schedule: Q04DX003 (ip), vehicle: Klucel (hydroxypropylcellulose) (HPC).

As for `COc1c(O)cc2c(c1OC)-c1ccc(SC)c(=O)cc1C(NC(C)=O)CC2` (stereo unspecified), the T/C is, setting by setting: (endpoint: median survival time, dose: 0.06 mg/kg/injection, schedule: Q01DX009 (ip), vehicle: Klucel (hydroxypropylcellulose) (HPC)) 110 % of control; (endpoint: median survival time, dose: 0.12 mg/kg/injection, schedule: Q01DX009 (ip), vehicle: Klucel (hydroxypropylcellulose) (HPC)) 110 % of control; (endpoint: median survival time, dose: 0.25 mg/kg/injection, schedule: Q01DX009 (ip), vehicle: Klucel (hydroxypropylcellulose) (HPC)) 110 % of control; (endpoint: median survival time, dose: 0.31 mg/kg/injection, schedule: Q01DX009 (ip), vehicle: DMSO) 113 % of control; (endpoint: median survival time, dose: 0.31 mg/kg/injection, schedule: Q01DX009 (ip), vehicle: Klucel (hydroxypropylcellulose) (HPC)) 118 % of control; (endpoint: median survival time, dose: 0.5 mg/kg/injection, schedule: Q01DX009 (ip), vehicle: Klucel (hydroxypropylcellulose) (HPC)) 121 % of control. The T/C reads like this: (endpoint: median survival time, dose: 0.63 mg/kg/injection, schedule: Q01DX009 (ip), vehicle: DMSO) 124 % of control; (endpoint: median survival time, dose: 1.0 mg/kg/injection, schedule: Q01DX009 (ip), vehicle: Klucel (hydroxypropylcellulose) (HPC)) 105 % of control; (endpoint: median survival time, dose: 2.5 mg/kg/injection, schedule: Q01DX009 (oral), vehicle: DMSO) 108 % of control; (endpoint: median survival time, dose: 5.0 mg/kg/injection, schedule: Q01DX005 (ip), vehicle: Klucel (hydroxypropylcellulose) (HPC)) 164 % of control; (endpoint: median survival time, dose: 5.0 mg/kg/injection, schedule: Q01DX009 (ip), vehicle: DMSO) 172 % of control; (endpoint: median survival time, dose: 5.0 mg/kg/injection, schedule: Q01DX009 (oral), vehicle: DMSO) 107 % of control. Further, the T/C is, setting by setting: (endpoint: median survival time, dose: 10.0 mg/kg/injection, schedule: Q01DX009 (ip), vehicle: DMSO) 165 % of control; (endpoint: median survival time, dose: 10.0 mg/kg/injection, schedule: Q01DX009 (oral), vehicle: DMSO) 116 % of control; (endpoint: median survival time, dose: 20.0 mg/kg/injection, schedule: Q01DX005 (ip), vehicle: Klucel (hydroxypropylcellulose) (HPC)) 158 % of control; (endpoint: median survival time, dose: 20.0 mg/kg/injection, schedule: Q01DX009 (oral), vehicle: DMSO) 109 % of control; (endpoint: median survival time, dose: 40.0 mg/kg/injection, schedule: Q01DX009 (oral), vehicle: DMSO) 107 % of control.

`[O-][n+]1ccccc1C[P+](c1ccccc1)(c1ccccc1)c1ccccc1`: the T/C is 101 % of control (endpoint: mean survival time, dose: 12.5 mg/kg/injection, schedule: Q01DX009 (ip), vehicle: water); 100 % of control (endpoint: mean survival time, dose: 25.0 mg/kg/injection, schedule: Q01DX009 (ip), vehicle: water); 105 % of control (endpoint: mean survival time, dose: 50.0 mg/kg/injection, schedule: Q01DX009 (ip), vehicle: water); 96 % of control (endpoint: mean survival time, dose: 100.0 mg/kg/injection, schedule: Q01DX009 (ip), vehicle: water).

With `O=C(Cc1ccc([N+](=O)[O-])cc1)Nc1ccc(S(=O)(=O)F)cc1`, the T/C was 96 % of control (endpoint: mean survival time, dose: 100.0 mg/kg/injection, schedule: Q01DX001 (ip), vehicle: saline); 103 % of control (endpoint: mean survival time, dose: 200.0 mg/kg/injection, schedule: Q01DX001 (ip), vehicle: saline); 100 % of control (endpoint: mean survival time, dose: 400.0 mg/kg/injection, schedule: Q01DX001 (ip), vehicle: saline).

Turning to `CN(C)CCOc1ccc2c(c1)C/C(=C/c1ncc([N+](=O)[O-])n1C)C2=O`, the T/C is 96 % of control and 98 % of control (endpoint: mean survival time, dose: 6.25 mg/kg/injection, schedule: Q01DX009 (ip), vehicle: saline with Tween-80); 107 % of control (endpoint: mean survival time, dose: 12.5 mg/kg/injection, schedule: Q01DX009 (ip), vehicle: saline with Tween-80); 107 % of control and 108 % of control under setting [1]; 117 % of control and 107 % of control under setting [2]; 119 % of control and 104 % of control under setting [3]; 111 % of control under setting [4].

`Cc1ccc2c(c1)C(c1ccccc1)(c1ccccc1)OC2=O`: the T/C is 98 % of control under setting [5], 91 % of control under setting [6] and 95 % of control under setting [7].

On to `CCN(CC)CCNC(=O)C(O)(c1ccccc1)c1ccccc1`, for which the T/C is, setting by setting: under setting [8], 98 % of control; under setting [9], 103 % of control.

In the case of `CCCCCCCCN(c1ccc(I)cc1)S(=O)(=O)c1ccc(C)cc1`, the T/C is 94 % of control under setting [5] and 94 % of control under setting [6].

On to `c1ccc(CN2CN(Cc3ccccc3)CN(Cc3ccccc3)C2)cc1`, for which the T/C is 100 % of control under setting [3]; 89 % of control under setting [5]; 100 % of control under setting [4]; 89 % of control under setting [6]; 97 % of control under setting [10]; 98 % of control under setting [7].

For the compound `CC([NH-])C(=O)O.CC([NH-])C(=O)O.CC([NH-])C(=O)O.[Co+3]` (stereo unspecified), the T/C is, setting by setting: (endpoint: mean survival time, dose: 6.25 mg/kg/injection, schedule: Q01DX009 (ip), vehicle: saline) 98 % of control; (endpoint: mean survival time, dose: 12.5 mg/kg/injection, schedule: Q01DX009 (ip), vehicle: saline) 112 % of control; under setting [11], 107 % of control; under setting [8], 124 % of control.

Turning to `CC(Br)C(=O)NC(Cc1ccccc1)C(=O)O` (stereo unspecified), the T/C is 101 % of control under setting [3], 97 % of control under setting [4] and 97 % of control under setting [10].

As for `O=C(CCC(O)c1ccccc1)c1ccccc1` (stereo unspecified), the T/C (endpoint: mean survival time, dose: 50.0 mg/kg/injection, schedule: Q04DX002 (ip), vehicle: saline with Tween-80) is 97 % of control; the T/C (endpoint: mean survival time, dose: 100.0 mg/kg/injection, schedule: Q04DX002 (ip), vehicle: saline with Tween-80) is 91 % of control; the T/C (endpoint: mean survival time, dose: 200.0 mg/kg/injection, schedule: Q04DX002 (ip), vehicle: saline with Tween-80) is 91 % of control.

Take `N=C(N)SCc1cccs1`: the T/C reads like this: under setting [11], 100 % of control; under setting [8], 103 % of control; under setting [9], 95 % of control.

As for `C(=N\Nc1nc2ccccc2s1)/c1ccccc1`, the T/C is, setting by setting: under setting [12], 100 % of control; under setting [13], 105 % of control; under setting [14], 92 % of control.

Take `CC(Cl)CN(CC(C)Cl)c1ccc2c(c1)Cc1cc(F)ccc1-2` (stereo unspecified): the T/C by setting is: under setting [5], 98 % of control; under setting [6], 96 % of control; under setting [7], 100 % of control.

For the compound `O=C(O)c1cc(=O)cc(C(=O)O)o1`, the T/C was 91 % of control under setting [1]; 91 % of control (endpoint: mean survival time, dose: 50.0 mg/kg/injection, schedule: Q01DX009 (ip), vehicle: Klucel (hydroxypropylcellulose) (HPC)); 90 % of control under setting [2]; 91 % of control (endpoint: mean survival time, dose: 100.0 mg/kg/injection, schedule: Q01DX009 (ip), vehicle: Klucel (hydroxypropylcellulose) (HPC)); 95 % of control under setting [3].

With `CC1CCc2c(nc(C#N)c(=N)n2O)C1` (stereo unspecified), the T/C is, setting by setting: under setting [12], 102 % of control; under setting [13], 106 % of control; under setting [14], 98 % of control.

With `CN(C)Cc1cn(C2CC(O)C(CO)O2)c(=O)[nH]c1=O` (stereo unspecified), the T/C is, setting by setting: (endpoint: mean survival time, dose: 12.5 mg/kg/injection, schedule: Q01DX005 (ip), vehicle: water) 101 % of control; (endpoint: mean survival time, dose: 25.0 mg/kg/injection, schedule: Q01DX005 (ip), vehicle: water) 98 % of control; (endpoint: mean survival time, dose: 50.0 mg/kg/injection, schedule: Q01DX005 (ip), vehicle: water) 104 % of control; (endpoint: mean survival time, dose: 100.0 mg/kg/injection, schedule: Q01DX005 (ip), vehicle: water) 106 % of control; (endpoint: mean survival time, dose: 200.0 mg/kg/injection, schedule: Q01DX005 (ip), vehicle: water) 104 % of control.

Turning to `C=C[Si](c1ccccc1)(c1ccccc1)c1ccccc1`, the T/C (endpoint: mean survival time, dose: 75.0 mg/kg/injection, schedule: Q04DX003 (ip), vehicle: saline) is 95 % of control; the T/C (endpoint: mean survival time, dose: 150.0 mg/kg/injection, schedule: Q04DX003 (ip), vehicle: saline) was 97 % of control; the T/C (endpoint: mean survival time, dose: 300.0 mg/kg/injection, schedule: Q04DX003 (ip), vehicle: saline) was 97 % of control.

Take `CN(C)C(=O)c1ccc[n+](CC(=O)Nc2ccccc2)c1`: the T/C was 103 % of control (endpoint: mean survival time, dose: 100.0 mg/kg/injection, schedule: Q04DX003 (ip), vehicle: saline); 101 % of control (endpoint: mean survival time, dose: 200.0 mg/kg/injection, schedule: Q04DX003 (ip), vehicle: saline); 103 % of control (endpoint: mean survival time, dose: 400.0 mg/kg/injection, schedule: Q04DX003 (ip), vehicle: saline).
